Measurements from patent publication US20070299102A1, “Diphenyl Ox-Indol-2-One Compounds and Their Use in the Treatment of Cancer” (Topo Target A/S, priority 2004, published 2007).
“Also recorded” adds a separate entry of the source.

What was measured:
[1] = system: MDA-MB-468 cells; test: Protein synthesis, 14C-Leucine incorporation (Cytostar-T); assay type: cell-based, human; conditions: all time-points
Description: (§1) As described in “Leucine Uptake [^14C] Cytostar-T assay, Amersham Biosciences” (CFA773).
(§2) And incubated overnight in growth medium. The next day medium was carefully aspirated (8-channel Vacuboy) and 50 μL of fresh pre-warmed medium (10% FCS, 10 mM HEPES pH 7.2-7.5) was added. Cells were allowed to equilibrate at 37° C. for 60 min. Test compounds were added in 50 μL medium and ^14C-leucine was added in 100 μL medium (0.5 μCi mL−1 final). Plates were sealed with transparent, adhesive foil. Plates were then incubated in a 37° C. for 6 h in a humidified incubator. Incorporation of radioactive leucine into proteins (a measure of protein synthesis) was then read by coincidence scintillation (counts per minute (CPM)) using a Wallac Microbeta detector at the indicated time-intervals. A reading a t=0 (5 min after sealing plates) for each well is subtracted as background.

[2] = system: MDA-MB-231 cells; test: as above; assay type: cell-based, human; conditions: all time-points
Description: as §1, §2

[3] = system: MDA-MB-468 tumours; test: Xenograft studies using MDA-MB-468 tumours; assay type: in vivo, mice
[4] = system: PC-3 prostate cancer cell line; test: Alamar Blue cell proliferation assay; assay type: cell-based, human
Description: (§3) Cell culture: All cell lines except MCF10A are maintained in RPMI medium containing 10% foetal Bovine Serum (FBS) 100 U/ml penicillin, and 100 μg/ml streptomycin. MCF10A is maintained in mammary epithelial growth medium (MEGM) with singlequot addition (BPE, hydrocortisone, hEGF, insulin, gentamicin/amphotericin-B) (Clonetics/Cambrex Bio Science). All cell lines are incubated at 37° C., 5% CO2, and 95% humidity.
(§4) Alamar Blue cell proliferation assay: Cells are plated in black cell culture treated Packard/Perkin Elmer 96-viewplates in 100 μl/well RPMI medium containing […], 100 U/ml penicillin, and 100 μg/ml streptomycin. Cell proliferation has been estimated in triplicate for all cell lines in medium containing either 1% FBS or 10% FBS. […]
(§5) The number of viable cells is estimated using an Alamar Blue assay that measures mitochondrial activity. […] Alamar Blue signal is read in a fluorescence plate reader using a 590 nm emission filter and a 530 nm excitation filter.
(§6) Data handling/calculations: Data are normalised to values from 0% activity (S0) to 100% activity (Smax). Average values for S0 and Smax are calculated and used to calculate percent activity (PCTACT) in the assays by the formula: PCTACT=(Xraw−Smax)/(S0−Smax)*100.

[5] = system: MCF-7 tumours; test: Xenograft studies using MCF-7 tumours; assay type: in vivo, mice
Description: Nude balb/c mice weighing 25-45 grams are implanted with MCF-7 tumours by subcutaneous implantation in both flanks. […] Tumour volume is determined once or twice/week.

[6] = system: T47-D breast cancer cell line; test: Alamar Blue cell proliferation assay; assay type: cell-based; conditions: Homo sapiens, T47D, 72 h, 10% FBS, read-out: EC50 (nM), IC50 values for inhibition of cell proliferation
Description: as §3
(§7) Alamar Blue cell proliferation assay: Cells are plated in black cell culture treated Packard/Perkin Elmer 96-viewplates in 100 μl/well RPMI medium containing […], 100 U/ml penicillin, and 100 μg/ml streptomycin. Cell proliferation has been estimated in triplicate for all cell lines in medium containing either 1% FBS or 10% FBS. The day after plating, the growth medium is changed to either 100 μl/well RPMI containing 1% FBS, 100 U/ml penicillin, 100 μg/ml streptomycin and 25 μg/ml gentamicin or to 100 μl/well RPMI containing 10% FBS, 100 U/ml penicillin, 100 μg/ml streptomycin and 25 μg/ml gentamicin. Compounds are added in 9 point half-log dilution series at concentrations indicated in the graphs. […] Briefly, compounds are diluted in compound plates in growth medium containing either 1% FBS or 10% FBS corresponding to the medium in the plates. Compounds are transferred to the cell plates by transfer of 100 μl/well, resulting in a total volume of 200 μl/well containing compound at concentrations indicated in graphs and 0.25% DMSO. Terfenedine is used as a control for maximal cell kill in wells containing 50 μM terfenedine and 0.5% DMSO (Smax). Negative control wells (So) contain medium with 0.25% DMSO.
(§8) After compound addition cell plates are incubated undisturbed for 72 hours at 37° C., 5% CO2, and 95% humidity.
(§9) The number of viable cells is estimated using an Alamar Blue assay that measures mitochondrial activity. The medium is decanted and replaced with 150 μl/well RPMI medium without phenol-red containing 100 U/ml penicillin, and 100 μg/ml streptomycin and 10% Alamar Blue. The plates are placed in the incubator at 37° C., 5% CO2, and 95% humidity for 2 hours. Then, plates are moved to a table and allowed to cool to room temperature without stacking the plates. Alamar Blue signal is read in a fluorescence plate reader using a 590 nm emission filter and a 530 nm excitation filter.
as §6

[7] = system: BT-474 breast cancer cell line; test: Alamar Blue cell proliferation assay; assay type: cell-based; conditions: Homo sapiens, BT-474, 72 h, BT-474, 10% FBS, read-out: EC50 (nM), IC50 values for inhibition of cell proliferation
Description: as §3, §7, §8, §9, §6

[8] = system: SKBr-3 breast cancer cell line; test: Alamar Blue cell proliferation assay; assay type: cell-based; conditions: Homo sapiens, SK-BR-3, 72 h, SKBr-3, 10% FBS, read-out: EC50 (nM), IC50 values for inhibition of cell proliferation
Description: as §3, §7, §8, §9, §6

[9] = system: PC-3/M prostate cancer cell line; test: Alamar Blue cell proliferation assay; assay type: cell-based; conditions: Homo sapiens, 10% FBS, 72 hours, read-out: EC50 (nM), IC50 values for inhibition of cell proliferation
Description: as §3, §7, §8, §9, §6

[10] = system: BT-549 breast cancer cell line; test: Alamar Blue cell proliferation assay; assay type: cell-based; conditions: Homo sapiens, BT-549, 72 h, BT-549, 10% FBS, read-out: EC50 (nM), IC50 values for inhibition of cell proliferation
Description: as §3, §7, §8, §9, §6

[11] = system: MDA-MB-231 breast cancer cell line; test: Alamar Blue cell proliferation assay; assay type: cell-based; conditions: Homo sapiens; MDA-MB-231, 10% FBS, 72 hours; read-out: EC50 (nM); IC50 values for inhibition of cell proliferation
Description: as §3, §7, §8, §9, §6

[12] = system: MDA-MB-435S breast cancer cell line; test: Alamar Blue cell proliferation assay; assay type: cell-based; conditions: Homo sapiens, 10% FBS, 72 hours, read-out: EC50 (nM), IC50 values for inhibition of cell proliferation
Description: as §3, §7, §8, §9, §6

[13] = system: MCF7 breast cancer cell line; test: Alamar Blue cell proliferation assay; assay type: cell-based; conditions: Homo sapiens, MCF7, 72 h, MCF7, 10% FBS, read-out: EC50 (nM), IC50 values for inhibition of cell proliferation
Description: as §3, §7, §8, §9, §6

[14] = system: LnCaP prostate cancer cell line; test: Alamar Blue cell proliferation assay; assay type: cell-based; conditions: Homo sapiens, 10% FBS, 72 hours, read-out: EC50 (nM), IC50 values for inhibition of cell proliferation
Description: as §3, §7, §8, §9, §6

[15] = system: DU-145 prostate cancer cell line; test: Alamar Blue cell proliferation assay; assay type: cell-based; conditions: Homo sapiens; DU-145, 10% FBS, 72 hours; read-out: EC50 (nM); IC50 values for inhibition of cell proliferation
Description: as §3, §7, §8, §9, §6

[16] = system: MDA-MB-453 breast cancer cell line; test: Alamar Blue cell proliferation assay; assay type: cell-based; conditions: Homo sapiens, MDA-MB-453, 72 h, MDA-MB-453, 10% FBS, read-out: EC50 (nM), IC50 values for inhibition of cell proliferation
Description: as §3, §7, §8, §9, §6

[17] = system: non-transformed human breast epithelial cell line MCF10A; test: Alamar Blue cell proliferation assay; assay type: cell-based; conditions: MCF-10A, serum-free MEGM medium, 72 hours, read-out: EC50 (nM), IC50 values for inhibition of cell proliferation
Description: as §3, §7, §8, §9, §6

[18] = system: ZR75-1 breast cancer cell line; test: Alamar Blue cell proliferation assay; assay type: cell-based; conditions: Homo sapiens, ZR-75-1; ZR75-1, 10% FBS, 72 hours; read-out: EC50 (nM); IC50 values for inhibition of cell proliferation
Description: as §3, §7, §8, §9, §6

[19] = system: HCC-1954 breast cancer cell line; test: Alamar Blue cell proliferation assay; assay type: cell-based; conditions: Homo sapiens, HCC1954, 72 h, HCC-1954, 10% FBS, read-out: EC50 (nM), IC50 values for inhibition of cell proliferation
Description: as §3, §7, §8, §9, §6

[20] = system: MDA-MB-468 breast cancer cell line; test: Alamar Blue cell proliferation assay; assay type: cell-based; conditions: Homo sapiens, MDA-MB-468, 72 h, MDA-MB-468, 10% FBS, read-out: EC50 (nM), IC50 values for inhibition of cell proliferation
Description: as §3, §7, §8, §9, §6

[21] = system: panel of human breast cancer cell lines; test: Alamar Blue cell proliferation assay, summary over the breast panel; assay type: cell-based; conditions: 10% FBS; FIGS. 9, 10 and 11
Description: as §3, §4, §5, §6

[22] = system: panel of prostate cancer cell lines; test: Alamar Blue cell proliferation assay, summary over the prostate panel; assay type: cell-based; conditions: 10% FBS
Description: as §3, §4, §5, §6

[23] = system: mTOR pathway proteins (p70S6K, S6, 4E-BP1, AKT, cyclin D3) in MDA-468 cells; test: Western Blots on proteins involved in translational control; assay type: cell-based, human; conditions: MDA-468, 24 hour incubation
Description: 16-24 hours after, the growth medium were shifted to growth medium containing compounds.
After 24 or 48 hours incubation with compounds, cells were washed with ice cold PBS buffer and harvested in lysis buffer: Cytobuster reagent (Novagen) containing phosphatase inhibitor cocktail 1 and 2 and protease inhibitor cocktail (Sigma). Samples containing an equal amount of protein were loaded onto 7% Tris Acetate gels, 10% Bis-Tris in MES buffer or 12% Bis-Tris gels using MOPS running buffer (Invitrogen). Following electrophoresis the samples were blotted onto a PVDF membrane (Invitrogen). For membrane blocking and antibody incubations of p70 S6K, Phospho-p70 S6K (Thr389), PathscanI and S6 antibodies (Cell Signalling Technology) a buffer containing 0.2% Tween-20, 5% non-fat dry milk, 5% FBS, in Tris buffered Saline (TBS) were used. For immunoblotting of 4EBP1, Phospho 4EBP1 (Thr37/46), Phospho 4EBP1 (Ser65) (Cell Signalling Technology) and Cyclin D3 (Santa Cruz) a protocol from Cell Signalling Technology were used. Cell Signalling Technology blocking buffer contains 0.1% Tween-20, 5% non fat dry milk in TBS and primary antibody dilution buffer contains 0.1% Tween-20, 5% BSA in TBS. Before adding primary antibody dilution buffer to the membranes, the blots were rinsed briefly in 0.1% Tween-20. […] Peroxidase activity was detected using the ECL detection system (Amersham Biosciences).

[24] = monotherapy, PO daily for 15 days or IV weekly for 4 weeks

## COc1ccc(C[C@H]2NC[C@H](O)[C@H]2OC(C)=O)cc1 [Anisomycin]
[1]
  Effect of control compounds on 14C-Leucine incorporation: completely inhibit
[2]
  Effect of control compounds on 14C-Leucine incorporation: completely inhibit

## O=C1Nc2c(ccc(F)c2F)C1(c1ccc(O)cc1)c1ccc(O)cc1 [Compound 41, 6,7-Difluoro-3,3-bis-(4-hydroxy-phenyl)-1,3-dihydro-indol-2-one]
[3]; [24]
  Rate of tumour growth, MDA-MB-468 xenograft: reduces the rate of MDA-MB-468 human breast cancer tumour cell growth
[3]; monotherapy, PO or IV
  Tumour regression, MDA-MB-468 xenograft: induces tumour regression at all doses tested; also recorded: more pronounced tumour regression at all doses tested
[3]; mouse, in vivo
  Effect compared with paclitaxel, MDA-MB-468 xenograft: more pronounced than following administration of paclitaxel; also recorded: more effective than paclitaxel
  Per-oral versus intravenous dosing, MDA-MB-468 xenograft: equally effective by per-oral and intravenous dosing
[4]; 10% FBS
  Effect on proliferation of PC-3: inhibit the proliferation
[5]; [24]
  Tumour size / growth, MCF-7 xenograft: reduces the rate of MCF-7 human breast cancer tumour cell growth; also recorded: reduces the size of MCF7 tumours
[5]; monotherapy, PO or IV
  Tumour regression, MCF-7 xenograft: induces tumour regression at all doses tested; also recorded: tumour regression is noted using all doses tested
[5]; mouse, in vivo
  Effect compared with paclitaxel, MCF-7 xenograft: more pronounced than following administration of paclitaxel; also recorded: appears to be greater than paclitaxel
  Per-oral versus intravenous dosing, MCF-7 xenograft: equally effective by the per-oral and intravenous dosing

## C[C@@H]1C[C@@H]([C@H](O)CC2CC(=O)NC(=O)C2)C(=O)[C@@H](C)C1 [Cycloheximide]
[1]
  Effect of control compounds on 14C-Leucine incorporation: completely inhibit
[2]
  Effect of control compounds on 14C-Leucine incorporation: completely inhibit

## O=C1Nc2ccccc2C1(c1ccc(O)cc1)c1ccc(O)cc1 [Oxyphenisatine]
[6]
  IC50: 324 nM
[7]
  IC50: 324 nM
[8]
  IC50: 527 nM
[9]
  IC50: > 3000 nM
[10]
  IC50: 859 nM
[11]
  IC50: > 3000 nM
[12]
  IC50: > 3000 nM
[13]
  IC50: 517 nM
[14]
  IC50: 790 nM
[15]
  IC50: > 3000 nM
[16]
  IC50: 228 nM
[17]
  IC50: > 3000 nM
[18]
  IC50: 285 nM
[19]
  IC50: 912 nM
[20]
  IC50: 935 nM
[21]
  Potency relative to Compound 3, breast cell line panel: slightly lower in potency
[4]; Homo sapiens, PC-3, 10% FBS, 72 hours, read-out: EC50 (nM), IC50 values for inhibition of cell proliferation
  IC50: 899 nM
[22]
  Potency relative to Compound 3, prostate cell line panel: lower potency than Compound 3

## CO[C@H]1C[C@@H]2CC[C@@H](C)[C@@](O)(O2)C(=O)C(=O)N2CCCC[C@H]2C(=O)O[C@H]([C@H](C)C[C@@H]2CC[C@@H](O)[C@H](OC)C2)CC(=O)[C@H](C)/C=C(\C)[C@@H](O)[C@@H](OC)C(=O)[C@H](C)C[C@H](C)/C=C/C=C/C=C/1C [rapamycin]
[23]
  AKT phosphorylation on Ser473 (Western blot): not inhibited
